pEC50: −log10 of the molar value.

The test system of the assay is virus CPE inhibition assay, host cell viability. Briefly: dose response, CPE inhibition, cell viability (AID 2310).
[1] abbreviates: measured here: HTS CPE inhibition EC50.
[2] abbreviates: measured here: HTS cell viability IC50.
The mark [3] stands for this setting: measured here: cytotoxicity, cell viability IC50.

As a reminder, the pEC50 is the EC50 on a negative log10 scale, so that one unit is a factor of ten. The term CC50 denotes the concentration giving 50% cytotoxicity. The low end stands for greater toxicity to the cells, the high end for lower toxicity to the cells. Consider `COc1ccc(-c2nc(=O)[nH]c3c2CCc2ccccc2-3)cc1`, for which the negative logarithm of the EC50 (pEC50) is 6.02. The compound also showed a pEC50 under setting [1] of 5.96. The CC50 under setting [2] was over 20000 nM. The compound also came in with a CC50 under setting [3] of over 50000 nM.
For `O=C(Nc1c(-c2ccccc2)nc2sccn12)c1ccccc1`, the negative logarithm of the EC50 (pEC50) was 6.20. Under setting [1], this compound had a pEC50 of 6.20. Besides, the CC50 under setting [2] is over 60000 nM. Moreover, the CC50 under setting [3] was over 60000 nM.
Turning to `Cc1cccc(C2NC(=O)NC3=C2CCc2ccccc23)c1` (stereo unspecified), the pEC50 was 6.15. Moreover, the pEC50 under setting [1] is 6.04. Under setting [2], this compound displayed a CC50 of over 20000 nM. The compound also yielded a CC50 under setting [3] of over 50000 nM.
As for `O=C1NC2=C(CCc3ccccc32)C(c2ccc3c(c2)OCO3)N1` (stereo unspecified), the pEC50 is 6.41. Further, the pEC50 under setting [1] was under 4.70. Under setting [2], this compound showed a CC50 of 17500 nM. Besides, the CC50 under setting [3] was 29600 nM.

These data come from PubChem BioAssay AID2310 (SRMLSC, 2010).
